Results from patent US20110173718A1, “HERBICIDE TOLERANT PLANTS” (SYNGENTA CROP PROTECTION, INC., priority 2008, published 2011).

Legend:
Chlamydomonas HST = target: T1, Chlamydomonas HST (Chlamydomonas reinhardtii, UniProt A1JHN0); assay: HST assay (TLC, MFBQ formed), recombinant Chlamydomonas HST in E. coli membranes; format: biochemical; conditions: 25 ppm, TLC, estimated amount of MFBQ formed, relative to controls; for inhibition at 25 ppm: read-out: Chlamydomonas. HST % I at 25 ppm
T1 construct: GST (N); made in house; host or cells: E. coli (BL21A1 / BL21DE3), membrane fraction
T1 sequence (A1JHN0 51-370): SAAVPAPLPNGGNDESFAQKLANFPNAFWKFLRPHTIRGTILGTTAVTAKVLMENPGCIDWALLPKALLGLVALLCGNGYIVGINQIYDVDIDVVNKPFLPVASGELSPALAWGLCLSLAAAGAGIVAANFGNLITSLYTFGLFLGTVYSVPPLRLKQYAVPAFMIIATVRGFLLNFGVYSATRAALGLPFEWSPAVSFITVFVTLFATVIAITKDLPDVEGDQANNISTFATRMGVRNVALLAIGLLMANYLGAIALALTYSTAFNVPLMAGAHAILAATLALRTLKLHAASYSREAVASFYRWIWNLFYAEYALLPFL
Protocol: Alternatively, Arabidopsis and Chlamydomonas mature HST coding sequences are cloned as GST N-terminal fusion enzymes and expressed in E. coli.
E. coli. BL21A1 cells expressing mature Arabidopsis or Chlamydonionas HST as a GST N-terminal fusion proteins are grown, harvested, broken and membrane fractions expressing HST produced.
For example, 1 ng of recombinant DNA is used to transform BL21DE3 cells to obtain a plateful of individual colonies. One of these colonies is picked and used to inoculate an overnight culture of 100 ml of Luria Broth (LB) supplemented with 50 ug/ml of kanamycin at final concentration, grown at 37° C. with shaking at 220 rpm. Next morning, 10 mls of the overnight culture is used to inoculate 11 of fresh sterile LB supplemented with 50 ug/ml of kanamycin at final concentration, grown at 37° C. with shaking at 220 rpm until the OD reached 0.6 at 600 nm, induced with the addition of 0.1 mM IPTG and left to induce at 15° C. overnight. The cells are harvested by centrifugation at 4600 rpm for 10 min at 4° C. and the pellet stored at −80° C. […] E. coli cell pellet is then resuspended in 25 ml of 50 mM Tris, pH 7.5 supplemented with Roche EDTA-free protease inhibitor tablet (one tablet in 200 mls of buffer). 10 ml of cells are lysed by sonication on ice. The resultant lysed cells are centrifuged at 3000 g for 10 min to pellet the cell nuclei/debris etc. 10 mls of supernatant is aspirated and centrifuged at 150,000 g for 60 min at 4° C. The pellet containing the membranes is resuspended in 2 ml of the above buffer. These samples are stored as 100 ul aliquots at −80° C., after being diluted with addition of glycerol to 50% v/v.
(§1) Prenyltransferase (HST) activities are measured by determining the prenylation rates of [U—^14C]homogentisate using farnesyl diphosphate (FDP) as prenyl donor. ^14C homogentisate is prepared from ^14C tyrosine using L amino acid oxidase and HPPD. For inhibitor testing, compounds are dissolved in dimethylsulfoxide (DMSO). DMSO added at up to 2% v/v has no effect on assays. Control assays contain DMSO at the same concentration as in inhibitor containing assays.
The recombinant Chlamydomonas HST expressed in E. coli membranes is assayed in standard reaction mixtures with 200 μM FDP and 100 μM ^14C-homogentisate (40 dpm/pmol) in 50 mM Tricine-NaOH pH 8.5, 20 mM MgCl2. Assays are started with the addition of enzyme and run for ˜20 min at 28° C.
Recombinant Arabidopsis and Rice HSTs are expressed in insect cells. Assays are run as for Chlamydomonas HST except that assay temperature is 27° C. Assays are stopped with 300 ul of solvent mix (1:2, Chloroform:Methanol) and 100 ul of 0.5% NaCl, agitated/mixed and spun at 13,000 rpm in a benchtop eppendorf centrifuge for 5 minutes. 80 ul of the lower phase extract is loaded onto a TLC plate (silica Gel 60, 20 cm×20 cm) FLA3000 system and run for 35 minutes in dichloromethane. The radioactivity is quantified using a Fuji Phosphoimager and band intensity integrated as quantitative measure of product amount. The bands corresponding to oxidised and reduced 2-methyl-6-farnesyl-1,4-benzoquinol (MFBQ) are identified and the total of the two (oxidised and reduced) band intensities is calculated in order to estimate the total amount of MFBQ product formation. Specific activities of 8 pmol MFBQ min^−1 mg^−1 protein (23 pmol) and 7 pmol MFBQ min^−1 mg^−1 protein (14 pmol) are, for example, estimated for the GST-fusion truncated Arabidopsis HST gene (SEQ ID # 3) expressed in membranes from insect cells 4 days and 5 days after transfection respectively. Similar results are noted from past literature on E. coli expressed Arabidopsis HST. Activity from the insect cell expressed GST-fusion truncated rice HST (SEQ ID# 4) is similar. Expression of the non-truncated HST coding sequences as GST fusions also gives HST activity. […]

[1] = system: HST in spinach chloroplast extract; assay: HST assay (TLC, MFBQ formed), spinach chloroplast extract; format: biochemical; conditions: 25 ppm; TLC, estimated amount of MFBQ formed, relative to controls
Protocol: HST enzyme preparations for assay are also prepared directly from fresh plant material. For example HST enzyme preparations are from spinach. In the first step intact spinach chloroplasts are prepared from two lots of 500 g of fresh baby spinach leaves (e.g from the salad section of the local supermarket). Prepacked spinach is usually already washed, but if buying loose leaves these must be rinsed in water before proceeding. Stalks, large leaves and mid-ribs are removed. Each 500 g lot of leaves is added to 1.5 l of ‘Grinding medium’ in a 2 L plastic beaker. Grinding medium is cold (4° C.) 50 mM Tricine/NaOH buffer at pH 7.1 containing 330 mM glucose, 2 mM sodium isoascorbate, 5 mM MgCl2 and 0.1% bovine serum albumen The beaker, kept at 4° C., is placed under a Polytron 6000 blender, fitted with a 1.5″cutting probe and the mixture blended in short bursts of 5-8 sec up to 8-10K rpm until all the leaves are macerated. The homogenate is filtered into a 5 L beaker (embedded in an ice bucket) through four layers of muslin, and two layers of 50μ mesh nylon cloth. The filtrate is transferred to 250 ml buckets of a Beckman GS-6 centrifuge and spun at […] (3020 rpm) for 2 min at 4° C. The supernatant is drained away and discarded to leave a sediment of chloroplasts. Chloroplasts are resuspended in a few ml of cold resuspension medium by gentle swirling and gentle use of a quill brush soaked in resuspension medium. Resuspension medium is 50 mM Hepes/KOH pH 7.8 containing 330 mM sorbitol, 2 mM EDTA, 5 mM KH2PO4, 2 mM MgCl2 and 0.1% bovine serum albumen at 4° C. The chloroplasts are resuspended in 5-10 ml of resuspension buffer, recentrifuged down and resuspended again in order to wash them. The chloroplasts are then once again centrifuged down and then broken by resuspension in about 5 ml of 50 mM Tricine-NaOH pH 7.8 to a protein concentration of about 40 mg/ml. The solution is stored frozen at −80° C. in aliquots. This resuspension is defrosted and used directly in HST activity assays. Alternatively, chloroplasts are prepared resuspended in 50 mM Tris/HCl buffer at pH 7.8 containing 330 mM sorbitol (alternative resuspension buffer) and layered on top of a percol gradient (comprising the same buffer containing 45% percol), spun down, the intact chloroplast fraction taken and washed 2 or 3 times in the alternative resuspension buffer and then spun down again, resuspended in breaking buffer (without sorbitol), flash frozen and stored in aliquots at −80° C.
as §1
Assays using spinach chloroplast extracts (100 μl final volume) contain up to 2 mg of chloroplast protein, 50 mM Tricine-NaOH pH 8.5, 50 mM MgCl2, 200 μM farnesyl diphosphate (FDP) and 26 μM ^14C-homogentisate (167 dpm/pmol). Assays are run for about an hour at 28° C. […] Lipophilic reactions products are extracted and analyzed essentially as described in the literature.
Using the above assays percentage inhibition of the amount of MFBQ formed at a range of doses of inhibitors relative to the control amount obtained with no inhibitor present is reported (Table 1). The better inhibitors give greater percentage inhibition at lower doses.

SMILES	Chlamydomonas. HST % I at 25 ppm (Chlamydomonas HST) [%]	Spinach chloroplast extract % I at 25 ppm [1] [%]	inhibition at 25 ppm (Chlamydomonas HST) [%]
O=S1(=O)C(c2c(Cl)cccc2C(F)(F)F)=C(O)c2nccnc2N1CC(F)F [Compound 3.3]	20	35	–
CCc1cc(CC)c(-c2c(O)c3nccnc3[nH]c2=O)c(CC)c1 [Compound 2.10]	50	0	–
COc1nc(C)nc(NC(=O)NS(=O)(=O)c2ccccc2Cl)n1 [Chlorsulfuron, reference compound]	–	0	0
Oc1c(Br)c(F)nc(F)c1Br [Compound 1.4]	–	75	65
O=c1c(-c2c(Cl)cncc2Cl)c(O)c2nccnc2n1CC(F)F [Compound 5.1]	20	10	–
Oc1c(F)c(F)nc(F)c1Br [Compound 1.3]	–	65	55
O=S1(=O)C(c2c(Cl)ccc(Cl)c2Cl)=C(O)c2nccnc2N1CC(F)F [Compound 3.4]	50	40	–
O=c1[nH]c2nccnc2c(O)c1-c1ccccc1OC(F)(F)F [Compound 2.12]	0	0	–
CCN1c2nccnc2C(O)=C(c2c(Cl)cccc2C(F)(F)F)S1(=O)=O [Compound 3.1]	20	20	–
CN1c2nccnc2C(O)=C(c2ccc(Cl)cc2Cl)S1(=O)=O [Compound 3.2]	0	15	–
Oc1c(Cl)c(Cl)nc(Cl)c1Cl [Compound 1.2]	–	80	70
